Results reported in US20100004267A1, “LIQUID PREPARATION” (ASUBIO PHARMA CO., LTD., priority 2006, published 2010).
Structures can show the parent of a compound that is named as a salt.

What was measured:
[1] = Likelihood of formation of insoluble aggregate with free base among counter ions; format: physicochemical; settings: estimated from the inventors' examinations
[2] = Examination of antioxidant: storage at 60° C. (Test example 3); format: physicochemical
Method: In this examination, hydrochloride of the compound of formula (I) was used instead of SUN N8075. Approximately 400 mg of the hydrochloride of compound of formula (I) were precisely weighed and water was added to make the volume precisely 200 mL, which was provided as an original drug aqueous solution.
Approximately 400 mg of each antioxidant shown in Table 3 below were precisely weighed and dissolved by adding 20 mL of water. As to butylhydroxy anisole, 10.7 mg was precisely weighed and dissolved in 100 mL of water.
15 mL of each antioxidant solution was mixed with 15 mL of solution of drug substance to prepare a stock sample (in the sample, the concentration of the hydrochloride compound of formula (I) corresponds to 1 mg/mL and the concentration of antioxidant corresponds to 10 mg/mL).
After dispensing each stock sample into 15 brown glass ampules, the ampules were sealed and stored at 60° C.
As a control sample, 15 mL of solution of drug substance added with 15 mL of water were stored in the same condition.
The remaining three ampules for each sample solution were used for measurement at the start of tests.
Each prepared sample was sampled in time series. 1 mL of sample solution was precisely measured, change in appearance and solution state of the sample were observed, and then added with methanol to make the volume precisely 10 mL. For this solution, residual percentage of the hydrochloride of compound of formula (I) was calculated by HPLC method. Furthermore, the pH value of the sample solution remaining after completion of test was measured.

[3] = Butyl hydroxy anisole, at start
[4] = L-Cysteine HCl monohydrate 10 mg/mL, 1 day
[5] = L-Cysteine HCl monohydrate 10 mg/mL, 7 days
[6] = L-Cysteine HCl monohydrate 10 mg/mL, 21 days
[7] = L-Cysteine HCl monohydrate 10 mg/mL, at start
[8] = Sodium bisulfite 10 mg/mL, 1 day
[9] = Sodium bisulfite 10 mg/mL, 7 days
[10] = Sodium bisulfite 10 mg/mL, 21 days
[11] = Sodium bisulfite 10 mg/mL, at start
[12] = Sodium edetate 10 mg/mL, 7 days
[13] = Sodium edetate 10 mg/mL, 21 days
[14] = Sodium edetate 10 mg/mL, at start
[15] = Sodium pyrosulfite 10 mg/mL, 1 day
[16] = Sodium pyrosulfite 10 mg/mL, 7 days
[17] = Sodium pyrosulfite 10 mg/mL, 21 days
[18] = Sodium pyrosulfite 10 mg/mL, at start
[19] = α-Thioglycerol 10 mg/mL, 7 days
[20] = α-Thioglycerol 10 mg/mL, 21 days
[21] = α-Thioglycerol 10 mg/mL, at start

Cc1cc(OC[C@@H](O)CN2CCN(c3ccc(Cc4ccc(F)cc4)cc3)CC2)c(C)c(C)c1N [compound represented by the formula (I), (2S)-1-(4-amino-2,3,5-trimethylphenoxy)-3-{4-[4-(4-fluorobenzyl)phenyl]-1-piperazinyl}-2-propanol]
Order of likelihood of formation of insoluble aggregate with free base among various counter ions [1]: sulfate ion>sulfite (or bisulfite ion)>>phosphate ion (or hydrogen phosphate ion, dihydrogen phosphate ion)>acetate ion>chloride ion>methane sulfonate ion

Cc1cc(OC[C@@H](O)CN2CCN(c3ccc(Cc4ccc(F)cc4)cc3)CC2)c(C)c(C)c1N [hydrochloride of compound of formula (I)]
Appearance ([2]; Butyl hydroxy anisole (10.7 mg in 100 mL stock), at start): colorless and clear
Appearance ([2]; Butyl hydroxy anisole, 1 day): colorless and clear
Purity ([2]; Butyl hydroxy anisole, 1 day): 96.8%
Residual degree ([2]; Butyl hydroxy anisole, 1 day): 99.2%
pH ([2]; Butyl hydroxy anisole, 1 day): 2.8
Appearance ([2]; Butyl hydroxy anisole, 7 days): colorless and clear
Purity ([2]; Butyl hydroxy anisole, 7 days): 80.6%
Residual degree ([2]; Butyl hydroxy anisole, 7 days): 80.3%
pH ([2]; Butyl hydroxy anisole, 7 days): 2.8
Appearance ([2]; Butyl hydroxy anisole, 21 days): Brown precipitates
Purity ([2]; Butyl hydroxy anisole, 21 days): 53.5%
Residual degree ([2]; Butyl hydroxy anisole, 21 days): 41.2%
pH ([2]; Butyl hydroxy anisole, 21 days): 2.8
Purity [2, 3]: 100%
Residual degree [2, 3]: 100%
pH [2, 3]: 2.8
Appearance ([2]; Citric acid 10 mg/mL, 1 day): colorless and clear
Purity ([2]; Citric acid 10 mg/mL, 1 day): 99.2%
Residual degree ([2]; Citric acid 10 mg/mL, 1 day): 98.0%
pH ([2]; Citric acid 10 mg/mL, 1 day): 2.2
Appearance ([2]; Citric acid 10 mg/mL, 7 days): colorless and clear
Purity ([2]; Citric acid 10 mg/mL, 7 days): 88.6%
Residual degree ([2]; Citric acid 10 mg/mL, 7 days): 89.8%
pH ([2]; Citric acid 10 mg/mL, 7 days): 2.2
Appearance ([2]; Citric acid 10 mg/mL, 21 days): colorless and clear
Purity ([2]; Citric acid 10 mg/mL, 21 days): 63.6%
Residual degree ([2]; Citric acid 10 mg/mL, 21 days): 57.3%
pH ([2]; Citric acid 10 mg/mL, 21 days): 2.2
Appearance ([2]; Citric acid 10 mg/mL, at start): colorless and clear
Purity ([2]; Citric acid 10 mg/mL, at start): 100%
Residual degree ([2]; Citric acid 10 mg/mL, at start): 100%
pH ([2]; Citric acid 10 mg/mL, at start): 2.1
Appearance [2, 4]: colorless and clear
Purity [2, 4]: 100%
Residual degree [2, 4]: 97.9%
pH [2, 4]: 1.7
Appearance [2, 5]: colorless and clear
Purity [2, 5]: 99.7%
Residual degree [2, 5]: 100.6%
pH [2, 5]: 1.7
Appearance [2, 6]: colorless and clear
Purity [2, 6]: 99.6%
Residual degree [2, 6]: 94.0%
pH [2, 6]: 1.7
Appearance [2, 7]: colorless and clear
Purity [2, 7]: 100%
Residual degree [2, 7]: 100%
pH [2, 7]: 1.7
Appearance ([2]; No additive, 1 day): colorless and clear
Purity ([2]; No additive, 1 day): 98.4%
Residual degree ([2]; No additive, 1 day): 98.7%
pH ([2]; No additive, 1 day): 2.8
Appearance ([2]; No additive, 7 days): colorless and clear
Purity ([2]; No additive, 7 days): 82.5%
Residual degree ([2]; No additive, 7 days): 84.4%
pH ([2]; No additive, 7 days): 3.0
Appearance ([2]; No additive, 21 days): colorless and clear
Purity ([2]; No additive, 21 days): 51.2%
Residual degree ([2]; No additive, 21 days): 43.1%
pH ([2]; No additive, 21 days): 2.9
Appearance ([2]; No additive, at start): colorless and clear
Purity ([2]; No additive, at start): 100%
Residual degree ([2]; No additive, at start): 100%
pH ([2]; No additive, at start): 2.8
Appearance [2, 8]: colorless and clear
Purity [2, 8]: 98.5%
Residual degree [2, 8]: 99.9%
pH [2, 8]: 3.2
Appearance [2, 9]: colorless and clear
Purity [2, 9]: 98.3%
Residual degree [2, 9]: 97.3%
pH [2, 9]: 2.8
Appearance [2, 10]: colorless and clear
Purity [2, 10]: 98.4%
Residual degree [2, 10]: 91.2%
pH [2, 10]: 2.8
Appearance [2, 11]: colorless and clear
Purity [2, 11]: 97.2%
Residual degree [2, 11]: 100%
pH [2, 11]: 3.5
Appearance ([2]; Sodium edetate 10 mg/mL, 1 day): colorless and clear
Purity ([2]; Sodium edetate 10 mg/mL, 1 day): 97.9%
Residual degree ([2]; Sodium edetate 10 mg/mL, 1 day): 94.1%
pH ([2]; Sodium edetate 10 mg/mL, 1 day): 3.8
Appearance [2, 12]: colorless and clear
Purity [2, 12]: 81.2%
Residual degree [2, 12]: 68.5%
pH [2, 12]: 4.1
Appearance [2, 13]: colorless and clear
Purity [2, 13]: 53.8%
Residual degree [2, 13]: 31.9%
pH [2, 13]: 4.2
Appearance [2, 14]: colorless and clear
Purity [2, 14]: 100%
Residual degree [2, 14]: 100%
pH [2, 14]: 4.0
Appearance [2, 15]: colorless and clear
Purity [2, 15]: 98.2%
Residual degree [2, 15]: 102.4%
pH [2, 15]: 3.1
Appearance [2, 16]: colorless and clear
Purity [2, 16]: 97.3%
Residual degree [2, 16]: 97.2%
pH [2, 16]: 2.9
Appearance [2, 17]: colorless and clear
Purity [2, 17]: 97.6%
Residual degree [2, 17]: 89.8%
pH [2, 17]: 2.7
Appearance [2, 18]: colorless and clear
Purity [2, 18]: 94.4%
Residual degree [2, 18]: 100%
pH [2, 18]: 3.6
Appearance ([2]; α-Thioglycerol 10 mg/mL, 1 day): colorless and clear
Purity ([2]; α-Thioglycerol 10 mg/mL, 1 day): 100%
Residual degree ([2]; α-Thioglycerol 10 mg/mL, 1 day): 97.5%
pH ([2]; α-Thioglycerol 10 mg/mL, 1 day): 2.8
Appearance [2, 19]: colorless and clear
Purity [2, 19]: 99.2%
Residual degree [2, 19]: 97.1%
pH [2, 19]: 2.8
Appearance [2, 20]: colorless and clear
Purity [2, 20]: 96.8%
Residual degree [2, 20]: 89.0%
pH [2, 20]: 2.8
Appearance [2, 21]: colorless and clear
Purity [2, 21]: 100%
Residual degree [2, 21]: 100%
pH [2, 21]: 2.7
